Columns and labels:
Mus musculus [1] = assay: Number of survivors/ number of animals tested at the dose of 210 mg/Kg; 0/6; format: functional
L1210 [2] = assay: (§1) Antitumor activity was evaluated against L1210 leukemia, injected intraperitoneally at a dose 40 umol/kg; format: functional, Mus musculus
Mus musculus [3] = assay: Number of survivors/ number of animals tested at the dose of 80 mg/Kg, iv; 0/6; format: functional
Mus musculus [4] = assay: Number of survivors/ number of animals tested at the dose of 165 mg/Kg; 6/6; format: functional
Mus musculus [5] = assay: Antitumor activity was evaluated against L1210 leukemia, injected intravenously at a dose 40 umol/kg; format: functional
Mus musculus [6] = assay: Number of survivors/ number of animals tested at the dose of 125 mg/Kg; 6/6; format: functional
Mus musculus [7] = assay: Number of survivors/ number of animals tested at the dose of 40 mg/Kg; 2/6; format: functional
Mus musculus [8] = assay: Number of survivors/ number of animals tested at the dose of 125 mg/Kg, iv; 6/6; format: functional
Mus musculus [9] = assay: Number of survivors/ number of animals tested at the dose of 40 mg/Kg, iv; 0/6; format: functional
Mus musculus [10] = assay: Antitumor activity was evaluated against L1210 leukemia, injected intravenously at a dose 80 umol/kg; format: functional
Mus musculus [11] = assay: Antitumor activity was evaluated against L1210 leukemia, injected intraperitoneally at a dose 210 umol/kg; format: functional
Mus musculus [12] = assay: Number of survivors/ number of animals tested at the dose of 80 mg/Kg; 6/6; format: functional
Mus musculus [13] = assay: Number of survivors/ number of animals tested at the dose of 210 mg/Kg; 3/6; format: functional
Mus musculus [14] = assay: Number of survivors/ number of animals tested at the dose of 165 mg/Kg; 5/6; format: functional
Mus musculus [15] = assay: Number of survivors/ number of animals tested at the dose of 155 mg/Kg, ip; 6/6; format: functional
Mus musculus [16] = assay: Number of survivors/ number of animals tested at the dose of 40 mg/Kg, ip; 0/6; format: functional
Mus musculus [17] = assay: Number of survivors/ number of animals tested at the dose of 80 mg/Kg, ip; 5/6; format: functional
Mus musculus [18] = assay: Number of survivors/ number of animals tested at the dose of 235 mg/Kg, iv; 5/6; format: functional
Mus musculus [19] = assay: as §1; format: functional
Mus musculus [20] = assay: Antitumor activity was evaluated against L1210 leukemia, injected intraperitoneally at a dose 295 umol/kg; format: functional
Mus musculus [21] = assay: Number of survivors/ number of animals tested at the dose of 115 mg/Kg, ip; 6/6; format: functional
Mus musculus [22] = assay: Number of survivors/ number of animals tested at the dose of 155 mg/Kg, iv; 6/6; format: functional
Mus musculus [23] = assay: Number of survivors/ number of animals tested at the dose of 195 mg/Kg, ip; 5/6; format: functional
Mus musculus [24] = assay: Number of survivors/ number of animals tested at the dose of 235 mg/Kg, ip; 0/6; format: functional
Mus musculus [25] = assay: Number of survivors/ number of animals tested at the dose of 195 mg/Kg, iv; 5/6; format: functional
Mus musculus [26] = assay: Antitumor activity was evaluated against L1210 leukemia, injected intravenously at a dose 235 umol/kg; format: functional
Mus musculus [27] = assay: Number of survivors/ number of animals tested at the dose of 115 mg/Kg, iv; 6/6; format: functional
L1210 [28] = assay: Antitumor activity was evaluated against L1210 leukemia, injected intraperitoneally at a dose 120 umol/kg; format: functional, Mus musculus
L1210 [29] = assay: Antitumor activity was evaluated against L1210 leukemia, injected intraperitoneally at a dose 95 umol/kg; infinity-50-100%survivals; format: functional, cell-based; details: Mus musculus
L1210 [30] = assay: Number of survivors/ number of animals tested at the dose of 125 mg/Kg; 0/6; format: functional, Mus musculus
L1210 [31] = assay: Number of survivors/ number of animals tested at the dose of 25 mg/Kg; 0/6; format: functional, Mus musculus
L1210 [32] = assay: Number of survivors/ number of animals tested at the dose of 50 mg/Kg; 6/6; format: functional, Mus musculus
L1210 [33] = assay: Antitumor activity was evaluated against L1210 leukemia, injected intraperitoneally at a dose 25 umol/kg; format: functional, Mus musculus
L1210 [34] = assay: Antitumor activity was evaluated against L1210 leukemia, injected intraperitoneally at a dose 50 umol/kg; infinity-50-100%survivals; format: functional, cell-based; details: Mus musculus
L1210 [35] = assay: Antitumor activity was evaluated against L1210 leukemia, injected intraperitoneally at a dose 75 umol/kg; infinity-50-100%survivals; format: functional, cell-based; details: Mus musculus
L1210 [36] = assay: Number of survivors/ number of animals tested at the dose of 95 mg/Kg; 3/6; format: functional, Mus musculus
L1210 [37] = assay: Number of survivors/ number of animals tested at the dose of 75 mg/Kg; 6/6; format: functional, Mus musculus
Mus musculus [38] = assay: Antitumor activity was evaluated against L1210 leukemia, injected intravenously at a dose 40-250 umol/kg; format: functional
Mus musculus [39] = assay: Antitumor activity was evaluated against L1210 leukemia, injected intravenously at a dose 120 umol/kg; format: functional
L1210 [40] = assay: Number of survivors/ number of animals tested at the dose of 120 mg/Kg, iv; 0/6; format: functional, Mus musculus
L1210 [41] = assay: (§2) Number of survivors/ number of animals tested at the dose of 20 mg/Kg, iv; 0/6; format: functional, Mus musculus
L1210 [42] = assay: Number of survivors/ number of animals tested at the dose of 80 mg/Kg, iv; 1/6; format: functional, Mus musculus
Mus musculus [43] = assay: Antitumor activity was evaluated against L1210 leukemia, injected intravenously at a dose 20 umol/kg; format: functional
L1210 [44] = assay: (§3) Number of survivors/ number of animals tested at the dose of 40 mg/Kg, iv; 6/6; format: functional, Mus musculus
L1210 [45] = assay: Number of survivors/ number of animals tested at the dose of 60 mg/Kg, iv; 6/6; format: functional, Mus musculus
Mus musculus [46] = assay: Antitumor activity was evaluated against L1210 leukemia, injected intraperitoneally at a dose 195 umol/kg; infinity-50-100%survivals; format: functional, organism-based
Mus musculus [47] = assay: Antitumor activity was evaluated against L1210 leukemia, injected intraperitoneally at a dose 115 umol/kg; infinity-50-100%survivals; format: functional, organism-based
Mus musculus [48] = assay: Antitumor activity was evaluated against L1210 leukemia, injected intraperitoneally at a dose 155 umol/kg; infinity-50-100%survivals; format: functional, organism-based
Mus musculus [49] = assay: Antitumor activity was evaluated against L1210 leukemia, injected intravenously at a dose 155 umol/kg; infinity-50-100%survivals; format: functional, organism-based
Mus musculus [50] = assay: Antitumor activity was evaluated against L1210 leukemia, injected intravenously at a dose 195 umol/kg; infinity-50-100%survivals; format: functional, organism-based
Mus musculus [51] = assay: Antitumor activity was evaluated against L1210 leukemia, injected intravenously at a dose 115 umol/kg; infinity-50-100%survivals; format: functional, organism-based
Mus musculus [52] = assay: Antitumor activity was evaluated against L1210 leukemia, injected intraperitoneally at a dose 80 umol/kg; infinity-50-100%survivals; format: functional, organism-based
Mus musculus [53] = assay: Antitumor activity was evaluated against L1210 leukemia, injected intravenously at a dose 165 umol/kg; infinity-50-100%survivals; format: functional, organism-based
Mus musculus [54] = assay: Antitumor activity was evaluated against L1210 leukemia, injected intravenously at a dose 125 umol/kg; infinity-50-100%survivals; format: functional, organism-based
Mus musculus [55] = assay: Antitumor activity was evaluated against L1210 leukemia, injected intraperitoneally at a dose 165 umol/kg; infinity-50-100%survivals; format: functional, organism-based
Mus musculus [56] = assay: Antitumor activity was evaluated against L1210 leukemia, injected intravenously at a dose 210 umol/kg; infinity-50-100%survivals; format: functional, organism-based
Mus musculus [57] = assay: Antitumor activity was evaluated against L1210 leukemia, injected intraperitoneally at a dose 125 umol/kg; infinity-50-100%survivals; format: functional, organism-based
Mus musculus [58] = assay: Antitumor activity was evaluated against L1210 leukemia, injected intravenously at a dose umol/kg; format: functional
Mus musculus [59] = assay: as §3; format: functional
Mus musculus [60] = assay: as §2; format: functional
Mus musculus [61] = assay: Number of survivors/ number of animals tested at the dose of 60 mg/Kg, iv; 4/6; format: functional
Mus musculus [62] = assay: Antitumor activity was evaluated against L1210 leukemia, injected intravenously at a dose umol/kg; infinity-50-100%survivals; format: functional, organism-based
Mus musculus [63] = assay: Antitumor activity was evaluated against L1210 leukemia, injected intravenously at a dose umol/kg, survivors/6; format: functional

C[S+]([O-])CCN(N=O)C(=O)NCCCl.C[S+]([O-])CCNC(=O)N(CCCl)N=O (stereo unspecified) [listing 1 of 2 here]
Survivors (Mus musculus [1]): 0 | T/C x100 (L1210 [2]): 300 | Survivors (Mus musculus [3]): 0 | Survivors (Mus musculus [4]): 6 | T/C x100 (Mus musculus [5]): 170 | Survivors (Mus musculus [6]): 6 | Survivors (Mus musculus [7]): 2 | Survivors (Mus musculus [8]): 6 | Survivors (Mus musculus [9]): 0 | T/C x100 (Mus musculus [10]): 270 | T/C x100 (Mus musculus [11]): 295 | Survivors (Mus musculus [12]): 6 | Survivors (Mus musculus [13]): 3 | Survivors (Mus musculus [14]): 5

CS(=O)(=O)CCN(N=O)C(=O)NCCCl.CS(=O)(=O)CCNC(=O)N(CCCl)N=O [listing 1 of 2 here]
Survivors (Mus musculus [15]): 6 | Survivors (Mus musculus [3]): 0 | T/C x100 (Mus musculus [5]): 190 | Survivors (Mus musculus [16]): 0 | Survivors (Mus musculus [17]): 5 | Survivors (Mus musculus [18]): 5 | T/C x100 (Mus musculus [19]): 190 | Survivors (Mus musculus [9]): 0 | T/C x100 (Mus musculus [10]): 230 | T/C x100 (Mus musculus [20]): 410 | Survivors (Mus musculus [21]): 6 | Survivors (Mus musculus [22]): 6 | Survivors (Mus musculus [23]): 5 | Survivors (Mus musculus [24]): 0 | Survivors (Mus musculus [25]): 5 | T/C x100 (Mus musculus [26]): 290 | Survivors (Mus musculus [27]): 6

O=NN(CCCl)C(=O)NCCSSCCN(N=O)C(=O)NCCCl.O=NN(CCSSCCN(N=O)C(=O)NCCCl)C(=O)NCCCl
T/C x100 (L1210 [28]): 125 | T/C x100 (L1210 [29]): infinity-50-100%survivals | Survivors (L1210 [30]): 0 | Survivors (L1210 [31]): 0 | Survivors (L1210 [32]): 6 | T/C x100 (L1210 [33]): 250 | T/C x100 (L1210 [34]): infinity-50-100%survivals | T/C x100 (L1210 [35]): infinity-50-100%survivals | Survivors (L1210 [36]): 3 | Survivors (L1210 [37]): 6

C[S+]([O-])CCN(N=O)C(=O)NCCCl (stereo unspecified)
T/C x100 (Mus musculus [38]): <125

CS(=O)(=O)CCNC(=O)N(CCCl)N=O
T/C x100 (Mus musculus [39]): 190 | Survivors (L1210 [40]): 0 | Survivors (L1210 [41]): 0 | Survivors (L1210 [42]): 1 | T/C x100 (Mus musculus [10]): 300 | T/C x100 (Mus musculus [43]): 200 | Survivors (L1210 [44]): 6 | Survivors (L1210 [45]): 6

CS(=O)(=O)CCN(N=O)C(=O)NCCCl.CS(=O)(=O)CCNC(=O)N(CCCl)N=O [listing 2 of 2 here]
T/C x100 (Mus musculus [46]): infinity-50-100%survivals | T/C x100 (Mus musculus [47]): infinity-50-100%survivals | T/C x100 (Mus musculus [48]): infinity-50-100%survivals | T/C x100 (Mus musculus [49]): infinity-50-100%survivals | T/C x100 (Mus musculus [50]): infinity-50-100%survivals | T/C x100 (Mus musculus [51]): infinity-50-100%survivals | T/C x100 (Mus musculus [52]): infinity-50-100%survivals

CS(=O)(=O)CCN(N=O)C(=O)NCCCl
T/C x100 (Mus musculus [38]): <125

C[S+]([O-])CCN(N=O)C(=O)NCCCl.C[S+]([O-])CCNC(=O)N(CCCl)N=O (stereo unspecified) [listing 2 of 2 here]
T/C x100 (Mus musculus [53]): infinity-50-100%survivals | T/C x100 (Mus musculus [54]): infinity-50-100%survivals | T/C x100 (Mus musculus [55]): infinity-50-100%survivals | T/C x100 (Mus musculus [56]): infinity-50-100%survivals | T/C x100 (Mus musculus [52]): infinity-50-100%survivals | T/C x100 (Mus musculus [57]): infinity-50-100%survivals

C[S+]([O-])CCNC(=O)N(CCCl)N=O (stereo unspecified)
T/C x100 (Mus musculus [58]): 190 | Survivors (Mus musculus [59]): 6 | Survivors (Mus musculus [3]): 0 | Survivors (Mus musculus [60]): 0 | Survivors (Mus musculus [61]): 4 | T/C x100 (Mus musculus [62]): infinity-50-100%survivals | T/C x100 (Mus musculus [63]): 190

Reference: ChEMBL document CHEMBL1123050, “New cysteamine (2-chloroethyl)nitrosoureas. Synthesis and preliminary antitumor results” (1985)
